Here are results for 4 compounds from PubChem BioAssay (NCI).

Experiment in all cases: inhibition of tumour cell growth, NCI panel, 48 h
Experiment [1] concerns TK-10 renal.
For experiment [2], the system named is OVCAR-4 ovarian.
Experiment [3] has as its system LOX IMVI melanoma.
In experiment [4] the test system is COLO 205 colon.
In experiment [5] the test system is MALME-3M melanoma.
Experiment [6] relates to M14 melanoma.
Experiment [7] relates to CCRF-CEM leukemia.
Experiment [8] has as its system K-562 leukemia.
Experiment [9] concerns OVCAR-5 ovarian.
The test system of experiment [10] is A549 NSCLC.
In experiment [11] the test system is SR leukemia.
Experiment [12] deals with NCI-H522 lung.

SMILES strings stand for the structures. Several values for one entry are separate records, joined by “and”; a condition that tells them apart may be missing. Equal entries are not always repeated.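 Exposure lasted 48 hours, with cells grown in 96-well plates and compounds tested at five concentrations. The concentration for 50% growth inhibition is given as GI50. TGI: concentration producing complete growth inhibition.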 *1 amine or outer side, *2 acyl side, *3 side chain or, on linkers, in order; H or OH if unused. Where a SMILES comes first, the peptide text is derived from it. Bridges are numbered along the chain shown (N, C = ends). Roman numbers before positions name the chains, in order. [ ]: non-standard residue; d: D form. Actinocin(9to1) = Cc1c2oc3c(C)ccc(C(=O)[*:1])c3nc-2c(C(=O)[*:2])c(N)c1=O; NMeV = CN[CH](C(=O)O)C(C)C; Sar = CNCC(=O)O

For `NC(Cc1ccc(OCc2ccccc2)cc1)C(=O)NC(Cc1ccccc1)C(=O)Oc1c(Cl)c(Cl)c(Cl)c(Cl)c1Cl` (centres undefined), the TGI in experiment [1] is 28.9 µM; in experiment [2], 35.5 µM; in experiment [3], 27.1 µM; in experiment [4] it was 28.3 µM; in experiment [5], 35.3 µM; in experiment [6] it was 28.5 µM. The TGI in [7] was above 100 µM; in experiment [8], above 100 µM; in [9] it was 31.1 µM; in [10] it was 37.5 µM; in [11], above 100 µM; in experiment [12], 42.3 µM.
On to `CC(C)(C)c1ccc(C(O)CCCN2CCC(C(O)(c3ccccc3)c3ccccc3)CC2)cc1` (centres undefined), for which the GI50 in [2] is 1.44 µM; in experiment [3], 1.5 µM; in [6], 1.7 µM and 13.5 µM; in [7] it was 2 µM; in experiment [8] it was 2.18 µM; in experiment [12], 1.83 µM and 13.6 µM. For the same compound, the TGI is 2.75 µM in experiment [2]; 2.82 µM in experiment [3]; 2.52 µM and 21.2 µM in experiment [4]; 3.03 µM and 23.7 µM in [5]; 3.21 µM and 18.4 µM in [6]; 5.8 µM in experiment [7]. The TGI is 5.14 µM in experiment [8]; 3.31 µM and 21.2 µM in experiment [12].
`O=C(NNC(=S)Nc1ccccc1)c1nsc2ccccc12`: the TGI was above 100 µM in experiment [1]; above 100 µM in experiment [2]; above 100 µM in experiment [3]; above 100 µM in experiment [4]; 32.9 µM in experiment [6]; 49 µM in experiment [7]. For the same compound, the TGI is above 100 µM in experiment [8], above 100 µM in [9], above 100 µM in [10] and 91.1 µM in [11].
As to `Cc1c2oc3c(C)ccc(C(=O)NC4C(=O)NC(Cc5ccccc5)C(=O)N5CCCC5C(=O)N(C)CC(=O)N(C)C(C(C)C)C(=O)OC4C)c3nc-2c(C(=O)NC2C(=O)NC(Cc3ccccc3)C(=O)N3CCCC3C(=O)N(C)CC(=O)N(C)C(C(C)C)C(=O)OC2C)c(N)c1=O` (centres undefined) (I: TFP[Sar][NMeV] / II: TFP[Sar][NMeV]; ester I:1-I:C, II:1-II:C; linker I:N-II:N via Actinocin(9to1); configuration not given here), the GI50 in [1] was 0.0102 µM; in experiment [6] it was below 0.001 µM. The TGI was 1.65 µM and 5.66 µM in [1]; 0.383 µM and 0.467 µM in experiment [2]; 0.0112 µM and 0.0174 µM in experiment [4]; 0.0187 µM in [5]; 0.0399 µM and 0.0936 µM in experiment [6]; 0.00791 µM in experiment [7]. Further, the TGI in experiment [8] is 0.00316 µM; in experiment [9] it was 0.0551 µM; in experiment [10], 0.0252 µM; in experiment [11] it was below 0.001 µM; in experiment [12], 0.0217 µM.
